Test results: US20250302775A1, “METHODS FOR THE TREATMENT OF DEPRESSION” (Autobahn Therapeutics, Inc., priority 2022, published 2025)

Tests used:
[1] = brain and plasma concentration in rat cuprizone model after 21 days repeat administration; format: in vivo; conditions: 21 days repeat administration 30 or 100 μg/kg, 4 hours post-final dose
Protocol: In vivo brain exposure of active compound compared to prodrug was assessed via tissue distribution (TD) assay in mouse and rat cuprizone model, measured as brain exposure ratio of brain to plasma following thyromimetic treatment. […] Table 3 also depicts brain-to-plasma AUC ratio.

[2] = tissue distribution (TD) assay in mouse, brain and plasma; format: in vivo, male C57BL/6 mouse

brain exposure compared to prodrug LL-341070 [1]: enhanced brain exposure
AUC ([2]; male, C57BL/6, mouse, plasma, po, 100 ug/kg): 35.8 ng·h/mL
Brain AUC ([2]; single PO 100 μg/kg, male C57BL/6 mouse, AUC 0-24 hr): 73.9 ng·h/mL
SMILES: CC(C)c1c(O)ccc(Cc2c(Cl)cc(OCC(=O)O)cc2Cl)c1F [LL-341070A]
